Source: patent US4156731A, “Heterocyclic oxime compounds and carbamoyloxime derivatives” (priority 1976, dated 1979)

How the values were obtained:
[1] = test system: house flies (Musca domestica, L.); test: Fly Bait Test; format: in vivo; set-up: key: A: Excellent control; B: Partial control; C: No control; conditions: adults, 500 ppm in sugar bait, twenty four hours
Method: (§1) Selected species of the new compounds were evaluated to determine their pesticidal activity against mites and certain insects, including anaphid, a caterpillar, a beetle and a fly.
(§2) Suspensions of the test compounds were prepared by dissolving one gram of compound in 50 milliliters of acetone in which had been dissolved 0.1 gram (10 percent of the weight of compound) of an alkylphenoxy polyethoxyethanol surfactant, as an emulsifying or dispersing agent. The resulting solution was mixed into 150 milliliters of water to give roughly 200 milliliters of a suspension containing the compound in finely divided form. The thus-prepared stock suspension contained 0.5 percent by weight of test compound. The test concentrations in parts per million by weight employed in the tests described hereinbelow were obtained by appropriate dilutions of the stock suspension with water. The test procedures were as follows:
Four to six day old adult house flies (Musca domestica, L.) reared according to the specifications of the Chemical Specialities Manufacturing Association (Blue Book, McNair-Dorland Co., NY., 1954; pages 234-244, 261) under controlled conditions of 80°±5° F. and 50±5 per cent relative humidity, were the test insects. The flies were immobilized by anesthetizing with carbon dioxide and twenty five immobilized individuals, males and females, were transferred to a cage consisting of a standard food stainer about five inches in diameter which was inverted over a wrapping-paper-covered surface. The test compounds were formulated by diluting the stock suspension with a 10 per cent (by weight) sugar solution to give a suspension containing 500 parts of test compound per million parts of final formulation, by weight. Ten milliliters of the test formulation were added to a souffle cup containing a one inch square of an absorbent cotton pad. This bait cup was introduced and centered on the blotting paper under the food strainer prior to admitting the anesthetized flies. The caged flies were allowed to feed on the bait for twenty four hours, at a temperature of 80°±5° F. and the relative humidity of 50±5 per cent.
(§3) In these tests the pesticidal activity of the compounds against aphid, mite, Southern Armyworm, Mexican Bean Beetle, and house fly was rated as follows: […]

[2] = Peroral toxicity to mammals (rat); conditions: in vivo, po, mortality rate of 50 percent, read-out: A. O. Rat LD50
Method: Certain of these compositions were also evaluated to determine their peroral toxicity to mammals. The animal selected for this experiment was the rat.

[3] = test system: Mexican bean beetle (Epilachna varivestis, Muls.); test: Mexican Bean Beetle Leaf Spray Test; format: in vivo; set-up: key: A: Excellent control; B: Partial control; C: No control; conditions: fourth instar larvae, 500 ppm leaf spray, three days
Method: as §1, §2
Mexican Bean Beetle Leaf Spray Test
Fourth instar larvae of the Mexican bean beetle (Epilachna varivestis, Muls.), reared on Tendergreen bean plants at a temperature of 80°±5° F. and 50±5 per cent relative humidity, were the test insects.
The test compounds were formulated by diluting the stock suspension with water to give a suspension containing 500 parts of test compound per million parts of final formulation. Potted Tendergreen bean plants of standard height and age were placed on a revolving turntable and sprayed with 100-110 milliliters of test compound formulation by use of DeVilbiss spray gun set at 10 psig air pressure. This application, which lasted 25 seconds, was sufficient to wet plants to run-off. As a control, 100-110 milliliters of a water-acetone-emulsifier solution containing no test compound were also sprayed on infested plants. When dry, the paired leaves were separated and each was placed in a 9 centimeter Petri dish lined with moistened filter paper. Five randomly selected larvae were introduced into each dish, and the dishes were closed. The closed dishes were labeled and held at a temperature of […]. for three days. Although the larvae could easily consume the leaf within 24 to 48 hours, no more food was added. Larvae which were unable to move the length of the body, even upon stimulation, were considered dead.
as §3

[4] = test system: bean aphid (Aphis fabae Scop.); test: Bean Aphid Foliage Spray Test; format: in vivo; set-up: key: A: Excellent control; B: Partial control; C: No control; conditions: 500 ppm foliage spray, 24 hour holding period
Method: as §1, §2
Bean Aphid Foliage Spray Test
Adults and nymphal stages of the bean aphid (Aphis fabae Scop.) reared on potted dwarf nasturtium plants at 65°-70° F. and 50-70 per cent relative humidity, constituted the test insects. For testing purposes, the number of aphids per pot was standardized to 100-150 by trimming plants containing excess aphids.
The test compounds were formulated by diluting the stock suspension with water to give a suspension containing 500 parts of test compound per million parts of final formulation.
The potted plants (one pot per compound tested) infested with 100-150 aphids, were placed on a revolving turntable and sprayed with 100-110 milliliters of test compound formulation by use of a DeVilbiss spray gun set at 40 psig. air pressure. This application, which lasted 25 seconds, was sufficient to wet the plants to run-off. As a control, 100-110 milliliters of a water-acetone-emulsifier solution containing no test compound were also sprayed on infested plants. After spraying, the pots were placed on their sides on a sheet of white standard mimeograph paper which had been previously ruled to facilitate counting. Temperature and humidity in the test room during the 24 hour holding period were 65°-70° F. and 50-70 per cent, respectively. Aphids which fell into the paper and were unable to remain standing after being uprighted were considered dead. Aphids remaining on the plants wre observed closely for movement and those which were unable to move the length of the body upon stimulator by prodding were considered dead. Per cent mortality was recorded for various concentration levels.
as §3

[5] = test system: southern armyworm (Prodenia Eridania, (Cram.)); test: Southern Armyworm Leaf Spray Test; format: in vivo; set-up: key: A: Excellent control; B: Partial control; C: No control; conditions: larvae, 500 ppm leaf spray, three days
Method: as §1, §2
Southern Armyworm Leaf Spray Test
Larvae of the southern armyworm (Prodenia Eridania, (Cram.), reared on Tendergreen bean plants at a temperature of 80°±5° F. and a relative humidity of 50±5 per cent, constituted the test insects.
The test compounds were formulated by diluting the stock suspension with water to give a suspension containing 500 parts of test compound per million parts of final formulation. Potted Tendergreen bean plants of standard height and age were placed on a revolving turntable and sprayed with […] of test compound formulation by use of a DeVilbiss spray gun set at 10 psig. air pressure.
This application, which lasted 25 seconds, was sufficient to wet plants to run-off. As a control, 100-110 milliliters of a water-acetone-emulsifier solution containing no test compound were also sprayed on infested plants. When dry, the paired leaves were separated and each one was placed in a 9 centimeter Petric dish lined with moistened filter paper. Five randomly selected larvae were introduced into each dish and the dishes were closed. The closed dishes were labeled and held at 80°-85° F. for three days. Although the larvae could easily consume the whole leaf within twenty-four hours, no more food was added. Larvae which were unable to move the length of the body, even upon stimulation by prodding, were considered dead. Per cent mortality was recorded for various concentration levels.
as §3

[6] = test system: two spotted mite (Tetranychus urticae Koch); test: Mite Foliage Spray Test; format: in vivo; set-up: key: A: Excellent control; B: Partial control; C: No control; conditions: 500 ppm foliage spray, six days
Method: as §1, §2
Adults and nymphal stages of the two spotted mite (Tetranychus urticae Koch), reared on Tendergreen bean plants at 80±5 per cent relative humidity, were the test organisms. Infested leaves from a stock culture were placed on the primary leaves of two bean plants six to eight inches in height, growing in a two-and-a-half inch clay pot. 150-200 mites, a sufficient number for testing, transferred from the excised leaves to the fresh plants in a period of twenty four hours. Following the twenty four hour transfer period, the excised leaves were removed from the infested plants. The test compounds were formulated by diluting the stock suspension with water to give a suspension with water to give a suspension containing 500 parts of test compound per million parts of final formulation. The potted plants (one pot per compound) were placed on a revolving turntable and sprayed with 100-110 milliliters of test compound formulation by use of a DeVilbiss spray gun set at 40 psig. air pressure. This application, which lasted for 25 seconds, was sufficient to wet the plants to run-off. As a control, 100-110 milliliters of a water solution containing acetone and emulsifier in the same concentrations as the test compound formulation, but containing no test compound, were also sprayed on infested plants. The sprayed plants were held at 80±5 per cent relative humidity for six days, after which a mortality count of motile forms were made. Microscopic examination for motile forms was made on the leaves of the test plants. Any individual which was capable of locomotion upon prodding, was considered living.
as §3

Row | SMILES | House-Fly pesticidal activity rating [1] | LD50 [2] | Mexican Bean Beetle pesticidal activity rating [3] | Bean Aphid pesticidal activity rating [4] | Southern Armyworm pesticidal activity rating [5] | Mite pesticidal activity rating [6]
1 | CNC(=O)ON=C1SC(=NC(C)(C)C)SC1(C)C [L] | A | 31.5 mg/kg | A | A | B | A
2 | CC(C)N=C1SC(=NOC(=O)N(C)SN(C)C(=O)ON=C2SC(=NC(C)C)SC2(C)C)C(C)(C)S1 [XLIV, N,N'-Bis-[[5,5-Dimethyl-2-isopropylimino-4-[O-(N-methylcarbamoyl)oximino]-1,3-dithiolane]] sulfide] | B | 113 mg/kg | A | B | C | C
3 | CC(C)N=C1SC(=NOC(=O)N(C)SC(Cl)(Cl)Cl)C(C)(C)S1 [XLVIII] | A | 226 mg/kg | A | A | C | A
4 | CNC(=O)ON=C1SC(=NC(C)C)SC1(C)C [XLVII] | A | 8.9 mg/kg | A | A | C | A
5 | CCN=C1SC(=NOC(=O)NC)C(C)(C)S1 [XLVI] | A | 6.3 mg/kg | A | A | B | C
